Reference: patent US8524909B2, “Tetrahydro-pyran derivatives” (Hoffmann-La Roche Inc., priority 2010, dated 2013)

Biological target: mGlyT-1b (Mus musculus (Mouse), UniProt P28571)
Assay: Glycine Uptake Inhibition Assay (mGlyT-1b)
Assay type: cell-based
Conditions: [3H]-glycine uptake in Flp-in-CHO cells stably transfected with mGlyT1b cDNA; 20 min preincubation at 22° C.
Experimental: DMEM complete medium: Nutrient mixture F-12 (Gibco Life-technologies), fetal bovine serum (FBS) 5%, (Gibco life technologies), Penicillin/Streptomycin 1% (Gibco life technologies), Hygromycin 0.6 mg/ml (Gibco life technologies), Glutamine 1 mM Gibco life technologies)
Uptake buffer (UB): 150 mM NaCl, 10 mM Hepes-Tris, pH 7.4, 1 mM CaCl2, 2.5 mM KCl, 2.5 mM MgSO4, 10 mM (+) D-glucose.
Flp-in™-CHO (Invitrogen Cat no R758-07) cells stably transfected with mGlyT1b cDNA.
Glycine Uptake Inhibition Assay (mGlyT-1b)
On day 1 mammalian cells, (Flp-in™-CHO), transfected with mGlyT-1b cDNA, were plated at the density of 40,000 cells/well in complete F-12 medium, without hygromycin in 96-well culture plates. On day 2, the medium was aspirated and the cells were washed twice with uptake buffer (UB). The cells were then incubated for 20 min at 22° C. with either (i) no potential competitor, (ii) 10 mM non-radioactive glycine, (iii) a concentration of a potential inhibitor. A range of concentrations of the potential inhibitor was used to generate data for calculating the concentration of inhibitor resulting in 50% of the effect (e.g. IC50, the concentration of the competitor inhibiting glycine uptake of 50%). A solution was then immediately added containing [^3H]-glycine 60 nM (11-16 Ci/mmol) and 25 μM non-radioactive glycine. The plates were incubated with gentle shaking and the reaction was stopped by aspiration of the mixture and washing (three times) with ice-cold UB. The cells were lysed with scintillation liquid, shaken 3 hours and the radioactivity in the cells was counted using a scintillation counter.

Chain of mGlyT-1b (P28571 other isoform, or with tags, fused parts or gaps isoform P28571-2): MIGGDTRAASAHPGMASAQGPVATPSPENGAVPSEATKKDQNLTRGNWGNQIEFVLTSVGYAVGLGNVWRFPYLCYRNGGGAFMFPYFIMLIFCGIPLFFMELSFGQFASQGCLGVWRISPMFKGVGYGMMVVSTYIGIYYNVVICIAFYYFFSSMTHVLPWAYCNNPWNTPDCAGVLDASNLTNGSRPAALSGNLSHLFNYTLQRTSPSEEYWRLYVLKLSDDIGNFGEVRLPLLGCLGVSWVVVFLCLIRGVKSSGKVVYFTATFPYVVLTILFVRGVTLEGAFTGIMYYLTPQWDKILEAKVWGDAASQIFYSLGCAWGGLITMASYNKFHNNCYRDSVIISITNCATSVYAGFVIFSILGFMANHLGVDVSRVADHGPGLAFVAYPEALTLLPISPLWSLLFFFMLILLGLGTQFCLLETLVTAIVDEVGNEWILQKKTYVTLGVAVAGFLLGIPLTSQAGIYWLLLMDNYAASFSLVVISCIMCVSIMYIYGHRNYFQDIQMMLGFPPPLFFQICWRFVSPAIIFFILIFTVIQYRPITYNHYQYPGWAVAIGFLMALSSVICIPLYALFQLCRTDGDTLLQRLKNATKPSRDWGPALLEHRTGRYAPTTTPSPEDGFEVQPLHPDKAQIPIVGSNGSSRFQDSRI

In order of falling IC50:
1. COc1cc(C(F)(F)F)cc(SC)c1C(=O)N[C@H]1COCC[C@@H]1NC1CCC1 (racemic) [Example 4, N-((3RS,4SR)-4-Cyclobutylamino-tetrahydro-pyran-3-yl)-2-methoxy-6-methylsulfanyl-4-trifluoromethyl-benzamide]  337 nM
2. COc1cc(C(F)(F)F)cc(SC)c1C(=O)N[C@@H]1COCC[C@H]1NC1(C)CCCCC1 (racemic) [Example 25, 2-Methoxy-N-[(3SR,4RS)-4-(1-methyl-cyclohexyl-amino)-tetrahydro-pyran-3-yl]-6-methyl-sulfanyl-4-trifluoromethyl-benzamide]  278 nM
3. COc1cc(C(F)(F)F)cc(SC)c1C(=O)N[C@@H]1COCC[C@H]1NC(C)C1CC1 (mixture of isomers) [Example 31, N-[(3SR,4RS)-4-(1-Cyclopropyl-ethylamino)-tetrahydro-pyran-3-yl]-2-methoxy-6-methylsulfanyl-4-trifluoro-methyl-benzamide]  276 nM
4. COc1cc(C(F)(F)F)cc(SC)c1C(=O)N[C@H]1COCC[C@H]1N1CCCC1 (racemic) [Example 1, 2-Methoxy-6-methylsulfanyl-N-((3RS,4RS)-4-pyrrolidin-1-yl-tetrahydro-pyran-3-yl)-4-trifluoromethyl-benzamide]  261 nM
5. CC1(N[C@@H]2CCOC[C@H]2NC(=O)c2ccc(C(F)(F)F)cc2C2CC2)CCCC1 (racemic) [Example 29, 2-Cyclopropyl-N-[(3SR,4RS)-4-(1-methyl-cyclo-pentyl-amino)tetra-hydro-pyran-3-yl]-4-trifluoromethyl-benzamide]  235 nM
6. O=C(N[C@@H]1COCC[C@H]1NC1CC1)c1ccc(C(F)(F)F)cc1C1CC1 (racemic) [Example 20, 2-Cyclopropyl-N-((3SR,4RS)-4-cyclopropylamino-tetrahydro-pyran-3-yl)-4-trifluoromethyl-benzamide]  193 nM
7. COc1cc(C(F)(F)F)cc(SC)c1C(=O)N[C@H]1CCOC[C@H]1N1CCCC1 [Example 64, (−)-2-Methoxy-6-methylsulfanyl-N-(3-pyrrolidin-1-yl-tetrahydro-pyran-4-yl)-4-trifluoro-methyl-benzamide]  189 nM
8. COc1cc(C(F)(F)F)cc(SC)c1C(=O)N[C@@H]1CCOC[C@@H]1N1CCCC1 (relative stereo) [Example 63, cis-2-Methoxy-6-methylsulfanyl-N-(3-pyrrolidin-1-yl-tetrahydro-pyran-4-yl)-4-trifluoromethyl-benzamide]  189 nM
9. COc1cc(C(F)(F)F)cc(SC)c1C(=O)N[C@@H]1COCC[C@H]1NC1(C)CCCC1 (racemic) [Example 28, 2-Methoxy-N-[(3SR,4RS)-4-(1-methyl-cyclo-pentylamino)-tetrahydro-pyran-3-yl]-6-methyl-sulfanyl-4-trifluoromethyl-benzamide]  144 nM
10. O=C(N[C@@H]1COCC[C@H]1NC1CCCCC1)c1ccc(C(F)(F)F)cc1C1CC1 (racemic) [Example 14, N-((3SR,4RS)-4-Cyclohexylamino-tetrahydro-pyran-3-yl)-2-cyclopropyl-4-trifluoromethyl-benzamide]  125 nM
11. O=C(N[C@@H]1COCC[C@H]1NC1CCC1)c1ccc(C(F)(F)F)cc1C1CC1 (racemic) [Example 32, N-((3SR,4RS)-4-Cyclobutylamino-tetrahydro-pyran-3-yl)-2-cyclo-propyl-4-trifluoromethyl-benzamide]  119 nM
12. COc1cc(C(F)(F)F)cc(SC)c1C(=O)N[C@H]1COCC[C@@H]1NC1CCCC1 [Example 45, (+)-N-(4-Cyclopentylamino-tetrahydro-pyran-3-yl)-2-methoxy-6-methylsulfanyl-4-trifluoromethyl-benzamide]  111 nM
13. COc1cc(C(F)(F)F)cc(SC)c1C(=O)N[C@@H]1COCC[C@H]1N1C[C@H]2C[C@H]2C1 [Example 34, N-[(3S,4R)-4-(3-Aza-bicyclo[3.1.0]hex-3-yl)-tetra-hydro-pyran-3-yl]-2-methoxy-6-methylsulfanyl-4-trifluoromethyl-benzamide]  110 nM
14. COc1cc(C(F)(F)F)cc(C)c1C(=O)N[C@@H]1COCC[C@H]1N1CCCC1 (racemic) [Example 22, 2-Methoxy-6-methyl-N-((3SR,4RS)-4-pyrrolidin-1-yl-tetrahydro-pyran-3-yl)-4-trifluoro-methylbenzamide]  105 nM
15. Cc1cc(C(F)(F)F)cc(C(F)(F)F)c1C(=O)N[C@@H]1COCC[C@H]1N1CCCC1 [Example 40, (−)-2-Methyl-N-trans-(4-pyrrolidin-1-yl-tetrahydro-pyran-3-yl)-4,6-bis-trifluoromethyl-benzamide]  95.5 nM
16. CC(N[C@@H]1CCOC[C@H]1NC(=O)c1ccc(C(F)(F)F)cc1C1CC1)C1CC1 (mixture of isomers) [Example 30, 2-Cyclopropyl-N-[(3RS,4SR)-4-(1-cyclopropyl-ethylamino)-tetrahydro-pyran-3-yl]-4-trifluoro-methylbenzamide]  83.8 nM
17. O=C(N[C@H]1COCC[C@@H]1N1CCCC1)c1ccc(C(F)(F)F)cc1C1CC1 [Example 38, (−)-2-Cyclopropyl-N-(4-pyrrolidin-1-yl-tetrahydro-pyran-3-yl)-4-trifluoromethyl-benzamide]  83.4 nM
18. O=C(N[C@@H]1COCC[C@H]1N1CCCC1)c1ccc(C(F)(F)F)cc1C1CC1 [Example 37, (+)-2-Cyclopropyl-N-(4-pyrrolidin-1-yl-tetrahydro-pyran-3-yl)-4-trifluoromethyl-benzamide]  83.4 nM
19. COc1cc(C(F)(F)F)cc(C)c1C(=O)N[C@H]1COCC[C@@H]1N1CCCC1 [Example 53, (+)-2-Methoxy-6-methyl-N-(4-pyrrolidin-1-yl-tetrahydro-pyran-3-yl)-4-trifluoromethyl-benzamide]  78.2 nM
20. O=C(N[C@@H]1COCC[C@H]1NC1CCCC1)c1ccc(C(F)(F)F)cc1C1CC1 (racemic) [Example 12, N-((3SR,4RS)-4-Cyclopentylamino-tetrahydro-pyran-3-yl)-2-cyclopropyl-4-trifluoromethyl-benzamide]  75 nM
21. COc1cc(C(F)(F)F)cc(SC)c1C(=O)N[C@H]1COCC[C@@H]1N1CCCC1 (racemic) [Example 2, 2-Methoxy-6-methylsulfanyl-N-((3RS,4SR)-4-pyrrolidin-1-yl-tetrahydro-pyran-3-yl)-4-trifluoromethyl-benzamide]  66.2 nM
22. CCc1cc(C(F)(F)F)cc(OC)c1C(=O)N[C@@H]1COCC[C@H]1N1CCCC1 (racemic) [Example 24, 2-Ethyl-6-methoxy-N-((3SR,4RS)-4-pyrrolidin-1-yl-tetrahydro-pyran-3-yl)-4-trifluoro-methyl-benzamide]  64.1 nM
23. COc1cc(C(F)(F)F)cc(C2CC2)c1C(=O)N[C@H]1COCC[C@@H]1N1CCCC1 [Example 57]  62.5 nM
24. CCc1cc(C(F)(F)F)cc(CC)c1C(=O)N[C@@H]1COCC[C@H]1N1CCCC1 (racemic) [Example 23, 2,6-Diethyl-N-((3SR,4RS)-4-pyrrolidin-1-yl-tetrahydro-pyran-3-yl)-4-trifluoro-methylbenzamide]  58.4 nM
25. CCc1cc(C(F)(F)F)cc(OC)c1C(=O)N[C@H]1COCC[C@@H]1N1CCCC1 [Example 55]  48.3 nM
26. Cc1cc(C(F)(F)F)cc(C(F)(F)F)c1C(=O)N[C@H]1COCC[C@@H]1N1CCCC1 [Example 39, (+)-2-Methyl-N-trans-(4-pyrrolidin-1-yl-tetrahydro-pyran-3-yl)-4,6-bis-trifluoro-methyl-benzamide]  43.9 nM
27. O=C(N[C@@H]1COCC[C@H]1N1CCCC1)c1ccc(C(F)(F)F)cc1C1CC1 (racemic) [Example 8, 2-Cyclopropyl-N-((3SR,4RS)-4-pyrrolidin-1-yl-tetrahydro-pyran-3-yl)-4-trifluoromethyl-benzamide]  36.3 nM
28. CSc1cc(C(F)(F)F)cc(C(F)(F)F)c1C(=O)N[C@@H]1COCC[C@H]1N1CCCC1 [Example 42, (−)-2-Methylsulfanyl-N-trans-(4-pyrrolidin-1-yl-tetrahydro-pyran-3-yl)-4,6-bis-trifluoromethyl-benzamide]  27 nM
29. Cc1cc(C(F)(F)F)cc(C)c1C(=O)N[C@H]1COCC[C@@H]1N1CCCC1 [Example 51]  25.3 nM
30. CSc1cc(C(F)(F)F)cc(C(F)(F)F)c1C(=O)N[C@@H]1COCC[C@H]1N1CCCC1 (racemic) [Example 9, 2-Methylsulfanyl-N-((3SR,4RS)-4-pyrrolidin-1-yl-tetrahydro-pyran-3-yl)-4,6-bis-trifluoromethyl-benzamide]  16.5 nM
31. O=C(N[C@H]1COCC[C@@H]1N1CCCC1)c1c(C2CC2)cc(C(F)(F)F)cc1C(F)(F)F [Example 47, (+)-2-Cyclopropyl-N-(4-pyrrolidin-1-yl-tetrahydro-pyran-3-yl)-4,6-bis-trifluoromethyl-benzamide]  16 nM
32. COc1cc(C(F)(F)F)cc(C2CC2)c1C(=O)N[C@@H]1COCC[C@H]1N1CCCC1 (racemic) [Example 27, Cyclopropyl-6-methoxy-N-((3SR,4RS) 4 pyrrolidin-1-yl-tetrahydro-pyran-3-yl)-4-trifluoro-methyl-benzamide]  14.7 nM
